What was measured:
[1] = system: HOC1A cells; assay: 51Cr release assay, specific CTLs against HOC1A cells; format: cell-based; settings: for killing of HOC1A cells by peptide-CTLs: CTLs stimulated three periods, 4 hours, effector/target 40:1 to 5:1; for killing effect on HOC1A cells, comparison of antigens: T cells stimulated with single peptide 30 μg/ml, or VH CDR3 15 μg/ml plus VL CDR3 15 μg/ml, or 6B11 40 μg/ml; for killing of HOC1A cells after MHC class I molecule blocking: anti-human MHC class I antibodies 1:20 dilution
Description: (§1) The freeze-stored autologous lymphocytes were stimulated by DCs loaded with the peptides and KLH, to obtain peptide-specific CTLs (peptide-CTLs). One period consists of 7 days. On Day 3 of every period, 10 U/ml rh IL-2 was supplemented. Finally, peptide-CTLs were obtained after a 3-period stimulation.
(§2) 6B11-CTLs stimulated for one period were harvested and used as reacting cells in cell proliferation assay, ELISA cytokine assay and IFN-γ ELISPOT assay. 6B11-CTLs and peptide-CTLs stimulated for 3 periods were harvested for use in ^51Cr release assay as effector cells.
(§3) 6B11-CTLs and peptide-CTLs stimulated for three periods were used as effector cells. T2 cells, HOC1A cells and HLE cells loaded with corresponding peptides were used as target cells. Standard ^51Cr release assay was carried out for 4 hours. Target cells (1×10^6 cells) were placed into 0.5 ml RPMI 1640 culture medium (containing 5% fetal bovine serum). 100 μCi Na2^51CrO4 was added. The labeling reaction was allowed to continue overnight at 37° C. Then the cells were washed by cold RPMI 1640 culture medium (containing 5% fetal bovine serum) for three times to terminate the labeling reaction. Target cells (5×10^3 cells) were placed into 100 μl culture medium and then mixed with an equal volume of effector cells in a 96-well plate. The ratio of effector/target was set as 40:1, 20:1, 10:1 and 5:1. Spontaneous release wells contained target cells and the culture medium, while the maximal release wells contained target cells and corresponding culture medium containing 1% Triton X-100. The plates were gently spun using a plate centrifuge for 2 minutes and then co-incubated at 37° C. under 5% CO2 for 4 hours. The plates were gently spun again. 100 μl of supernatant per well was transferred to a counting tube and labeled as appropriate. The cpm values were determined by a γ counter. All assays were performed in duplicate. The ratio of cpm values of the spontaneous release well to the maximal release well was <20%. Killing ratio (%)=[(mean cpm value of the experimental wells−mean cpm value of the spontaneous release wells)/(mean cpm value of the maximal release wells−mean cpm value of the spontaneous release wells)]×100
(§4) For further analyzing the above-mentioned killing effect, the target cells were blocked by applying anti-human MHC class I antibodies, for evaluating the effect of CTL epitope peptides. Firstly, the optimal concentration of MHC class I antibodies was determined to be 1:20 dilution (FIG. 9). […] The killing effect were not disturbed by MHC class I antibodies, i.e., unrelated to the effect of CD8 T cells. […] Its killing effect was disturbed by MHC class I antibodies, which was mainly mediated by CD8 T cells (FIG. 10). […] The former was unrelated to CD8 T cells whereas the latter was mediated by CD8 T cells.
For investigating the specificity and effectiveness of the killing effect of T-cell epitope peptides, the following experiments were carried out. T cells were stimulated by VH CDR3 peptide (30 μg/ml, final concentration), VL CDR 3 peptide (30 μg/ml), VH CDR3 peptide (15 μg/ml) and VL CDR3 peptide (15 μg/ml) as well as anti-idiotype antibody 6B11 (40 μg/ml), resulting in corresponding specific CTLs, which were used as effector cells. HOC1A cells were used as target cells for performing ^51Cr release assay, in order to compare the effectiveness of each antigen in stimulating immune responses. […] The killing effect of the specific CTLs obtained by stimulating with the combination of VH CDR3 peptide and VL CDR3 peptide was even stronger, which indicated a synergic effect between them. The killing effect of them was also stronger than that of 6B11-CTLs (FIG. 12). […] Their effects were more accurate than that of anti-idiotype antibody 6B11.

[2] = system: T2 cells loaded with corresponding peptides; assay: 51Cr release assay, peptide-CTLs against T2 cells loaded with peptide; format: cell-based; settings: for killing of T2 cells loaded with the peptide by peptide-CTLs: CTLs stimulated three periods, 4 hours, effector/target 40:1 to 5:1; for killing of peptide-stimulated T2 cells after MHC class I molecule blocking: anti-human MHC class I antibodies 1:20 dilution
Description: as §1, §2, §3, §4

Sequence | killing of HOC1A cells by peptide-CTLs [1] | killing effect on HOC1A cells, comparison of antigens [1] | killing of HOC1A cells after MHC class I molecule blocking [1] | killing of T2 cells loaded with the peptide by peptide-CTLs [2] | killing of peptide-stimulated T2 cells after MHC class I molecule blocking [2]
IALITTKIAWYFDV (VH CDR3 region peptide) [VH CDR3 peptide] | could kill | could kill | could still kill | could kill | could still kill
SQSTHFPYT (VL CDR3 region peptide) | could also kill | could kill | significantly inhibited | could also kill | significantly inhibited

From patent US8110654B2, “T cell epitope peptides of ovarian cancer anti-idiotypic antibody 6B11 and use thereof” (Peking University People;s Hospital, priority 2006, dated 2012)
